The subject of one test is IL-2 production. Description: Interleukin-2 assay (IL-2 production, ELISA). Type of test: cell-based, human. Particulars: cells stimulated with PHA 10 µg/mL and 10^-8 M TPA; incubation 16-24 hours. Here is the method:
(§1) Jurkat E6-1 cell line (ATCC), a human leukemic T cell line or lymphocytes prepared from fresh human blood, are grown in compiete culture medium consisting of RPMI-1640 (Mediatech) supplemented with 10% v/v fetal bovine serum (HyClone, Logen, Vermont), penicillin (100 units/mL), streptomycin (200 µg/mL), and 2mM L-glutamine (GIBCO, Grand Island, New York). The cells are grown to a concentration of between 1.2 to 1.8 X 10^6 cells/mL before use. The cells are then centrifuged at low speed and resuspended to a concentration of 1.25 X 10^6 cells/mL in fresh medium.
(§2) The compounds to be tested are dissolved in DMSO, and water is added to make a 50% DMSO/water solution. The compounds are then diluted in sterile water such that the DMSO concentrations are less then 0.05%. The cells at a concentration of 1.25 X 10^6 cells/mL are stimulated with phytohemagglutinin 10 µg/mL (PHA) and 10^-8 M phorbol ester (12-O-tetradecanoylphorbol 13-acetate: TPA), (Sigma, St. Louis, Missouri). The compounds are then added and the cells are plated in flat-bottom tissue culture plates (Falcon, Lincoln Park, New Jersey), with 250,000 cells/well. Plates are then incubated at 37°C under an atmosphere of 5% CO2.
(§3) After incubation (16-24 hours), the cells are assayed for IL-2 production and cell viability (MTT). IL-2 production is assayed utilizing a solid phase ELISA immunoassay, sold in kit form by R&D Systems, Inc., Minneapolis, Minnesota.

The subject of another test is Jurkat E6-1 cell line. Put plainly: Cell viability (MTT mitochondrial enzyme assay). Type of test: cell-based, human. To be noted: same cells after removal of supernatant for the IL-2 assay; MTT 4 hours, read at 570 nm. The method, then: as §1, §2, §3
Cell viability is measured by the use of a mitochondrial enzyme assay. After removal of the supernatant for the IL-2 assay, Cell Titer 96 (a commercial solution of MTT available from Promega, Madison, Wisconsin) is added to the plates and incubated for 4 hours at 37°C. A solubilization solution is then added and incubated overnight. The plates are then read on an ELISA plate reader at a wavelength of 570 nm. Table II presents the results for the Interleukin-2 assay, the cell viability assay and the ratio of cell viability/IL-2 inhibition.

Values after ≈ are worked out from the molar mass of the structure shown.

For the molecule “[5R-(5α,5aβ,6β,7α,9aβ,9bβ)]-3b,4,5,5a,6,7,9a,10,11-decahydro-5a,6,9a-trihydroxy-9b-methyl-7-(1-methylethyl)-5,7-epoxyphenanthro[1,2-c]furan-1(3H)-one [Example 3]”, in the test with IL-2 production, the IC50/IL-2 came to 500 ng/mL. For the same molecule, in the test with Jurkat E6-1 cell line, the IC50/MTT was >>1,000 ng/mL.

In the case of `CC(C)[C@]1(O)C=C[C@@]2(O)[C@@]3(C)CCC4=C(COC4=O)C3CC[C@@]2(O)[C@@H]1O` (stereo partly drawn) [Example 2, [5aR-(5aα,6α,7β,9aα,9bα)]-3b,4,5,5a,6,7,9a,9b,10,11-decahydro-5a,6,7,9a-tetrahydroxy-9b-methyl-7-(1-methylethyl)-phenanthro[1,2-c]furan-1(3H)-one], the IC50/IL-2 in the test on IL-2 production worked out at 14 ng/mL (≈ 0.0384 µM). This molecule also yielded an IC50/MTT in the test on Jurkat E6-1 cell line of 90 ng/mL (≈ 0.247 µM).

In the case of “[5aS-(5aα,5bα,8β,9α,9aR*,10aβ)]-4,5a,5b,8,9,10a,11,11a-octahydro-5b,8,9-trihydroxy-5a-methyl-8-(1-methylethyl)-1H-oxireno[8a,9]phenanthro[1,2-c]furan-3(5H)-one [Example 1]”, the IC50/IL-2 in the test on IL-2 production is 1,000 ng/mL. The IC50/MTT in the test on Jurkat E6-1 cell line is on record as >>1,000 ng/mL.

(Values after EP0983256B1, “TRIPTOLIDE DERIVATIVES USEFUL IN THE TREATMENT OF AUTOIMMUNE DISEASES” (priority 1997, dated 1998).)
